# Assay results taken from patent publication US20260315434A1, “USE OF GUAIACOL SESQUITERPENE LACTONE DERIVATIVES” (NANJING UNIVERSITY OF CHINESE MEDICINE, priority 2023, published 2026).
# Columns and labels:
# [1] = test system: T cells / MDSCs; test: Promotion of T cell proliferation in a co-culture model of MDSCs and T cells; format: cell-based, mouse; conditions: 1 μM, MDSCs treated 12 hours, co-culture of MDSCs and T cells, compared to the control group
# Summary of the method: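 Bone-marrow MDSCs, after compound treatment, were co-cultured 48 h at 1:1 with CFDA-SE-labelled (10 μM solution), activated splenic T cells. Proliferation of CD3+ T cells was read by flow cytometry.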
# [2] = test system: Hepa1-6 cells; test: Antitumor effect in Hepa1-6 mouse hepatocellular carcinoma subcutaneous xenograft model; format: in vivo, C57BL/6 mice; conditions: 40 μmol/kg/d oral, 2 weeks
# [3] = test system: H22 cells; test: Antitumor effect in H22 mouse hepatocellular carcinoma subcutaneous xenograft model; format: in vivo, BALB/c mice; conditions: oral, 2 weeks
# [4] = test system: MDSCs; test: Proportion of MDSCs in tumor and spleen of H22 xenograft mice (flow cytometry); format: in vivo, BALB/c mice
# Method: Once all tumors were dissected, nail-sized tumor pieces were transferred to 1.5 mL Eppendorf tubes and minced with scissors. Transfer the minced tumor tissue suspension to a 15 mL centrifuge tube containing 3-5 mL of digestive enzymes (Collagenase IV 1 mg/mL, Hyaluronidase 1 mg/mL, DNase 120 U/mL). Incubate at 200 rpm and 37° C. for 1 hour. After digestion, pass the mixture through a 200-mesh sieve to obtain the tumor cell suspension. Centrifuge the resulting tumor suspension at 1600 rpm for 5 min, aspirate the supernatant, resuspend cells in 1 mL of 1×PBS per tube. Transfer the cell suspension to a 1.5 mL Eppendorf tube, centrifuge at 1600 rpm for 5 min, remove the supernatant, resuspend cells in 100 μL of 1×PBS per tube, add 1 μL of dead/live dye to each tube, mix thoroughly, and incubate at room temperature in the dark for 15 min. […] Position the spleen on a 200-mesh cell strainer. Gently press the spleen using a 10 mL syringe needle. […] Transfer the washed splenocyte suspension into a 15 mL centrifuge tube. Centrifuge at 1600 rpm for 5 min to collect cells. Wash once with 1×PBS. Add 3 mL red blood cell lysis buffer (diluted with ddH2O) to each tube and incubate for 5 min. After lysis, add 10 mL 1×PBS to each tube to terminate lysis. Centrifuge at 1600 rpm for 5 min. Add 1 mL 1×PBS to each 15 mL centrifuge tube, transfer to 1.5 mL EP tubes, and centrifuge at 1600 rpm for 5 min. Add 1 mL 1×PBS to each tube containing stained tumor cells and lysed spleen cells for one wash, centrifuge at 1600 rpm for 5 min, and remove the supernatant. Resuspend tumor cells and spleen cells separately in 100 μL 1×PBS. Add 1 μL FcX™ antibody to each tube and incubate at room temperature in the dark for 10 min. After incubation, sequentially add 1 μL each of CD45, CD11b, Gr1 antibodies. Incubate at 4° C. in the dark for 30 min. After incubation, wash once with 1×PBS, discard the supernatant, resuspend cells in 300 μL 1×PBS, filter the membrane into a flow cytometry tube, and proceed to instrument analysis.
# [5] = test system: T cells; test: Proportion of T cells in tumor and spleen of H22 xenograft mice (flow cytometry); format: in vivo, BALB/c mice
# Method: Once all tumors were dissected, nail-sized tumor pieces were transferred to 1.5 mL Eppendorf tubes and minced with scissors. Transfer the minced tumor tissue suspension to a 15 mL centrifuge tube containing 3-5 mL of digestive enzymes (Collagenase IV 1 mg/mL, Hyaluronidase 1 mg/mL, DNase 120 U/mL). Incubate at 37° C. on a shaking incubator at 200 rpm for 1 hour. After digestion, pass the mixture through a 200-mesh sieve to obtain the tumor cell suspension. Centrifuge the resulting tumor suspension at 1600 rpm for 5 min, aspirate the supernatant, resuspend cells in 1 mL of 1×PBS per tube. Transfer the cell suspension to a 1.5 mL Eppendorf tube, centrifuge at 1600 rpm for 5 min, remove the supernatant, resuspend cells in 100 μL of 1×PBS per tube, add 1 μL of dead/live dye to each tube, mix thoroughly, and incubate at room temperature in the dark for 15 min. […] Position the spleen on a 200-mesh cell strainer. Gently press the spleen using a 10 mL syringe needle. […] Transfer the splenocyte suspension into a 15 mL centrifuge tube. Centrifuge at 1600 rpm for 5 min to collect cells. Wash once with 1×PBS. Add 3 mL red blood cell lysis buffer (diluted with ddH2O) to each tube and incubate for 5 min. After lysis, add 10 mL 1×PBS to each tube to terminate lysis. Centrifuge at 1600 rpm for 5 min. Add 1 mL 1×PBS to each 15 mL centrifuge tube, transfer to 1.5 mL EP tubes, and centrifuge at 1600 rpm for 5 min. Add 1×PBS to each tube containing stained tumor cells and lysed spleen cells for one wash, centrifuge at 1600 rpm for 5 min, and remove the supernatant. Resuspend tumor cells and spleen cells separately in 100 μL 1×PBS. Add 1 μL FcX™ antibody to each tube and incubate at room temperature in the dark for 10 min. After incubation, sequentially add 1 μL each of CD45, CD3, and CD8 antibodies to each tube. Incubate at 4° C. in the dark for 30 min. After staining, wash once with 1 mL PBS. Centrifuge at 1600 rpm for 5 min. Discard the supernatant. Resuspend cells in 300 μL 1×PBS. Filter the cell suspension into a flow cytometry tube and proceed to instrument analysis.
# [6] = test system: 4T1 cells; test: Antitumor effect in 4T1 mouse mammary carcinoma xenograft model; format: in vivo, BALB/c mice; conditions: oral, 3 weeks
# Method: 4T1 cells were cultured and expanded in vitro. […] A 100 μL aliquot of this suspension was injected subcutaneously into the left forelimb axilla of female BALB/c mice. […] Daily oral administration was performed for 3 weeks. During the treatment period, mouse body weight and tumor diameter were measured daily. At the end of the experiment, mice were euthanized by cervical dislocation, and tumors were removed for weighing. Tumor volume (TV) was calculated using the formula: TV=½×a×b^2, where a represents the longest diameter of the tumor and b represents the shortest diameter.
# [7] = Water solubility testing of compounds (HPLC); conditions: deionized water, 37 °C
# [8] = test system: inflammatory cytokines (IL-1β, IL-6) in lung tissue; test: LPS-induced acute lung injury, inflammatory cytokines by ELISA; format: in vivo, C57BL/6 mice; conditions: 5 mg/kg; LPS 2411.32
# Method: After a 7-day acclimatization period, mice were used for subsequent experiments.
# The abdomen was opened, and the lungs were removed. They were rinsed twice with pre-chilled PBS. […] The remaining tissue was stored at −70° C. for future use.
# Data Statistics: All data are expressed as means S.E.M. Statistical differences between groups were analyzed using one-way ANOVA and t-tests in SPSS software. P values less than 0.05 were considered statistically significant.
# [9] = test system: inflammatory factors (TNF, IL-6, IL-1) in renal tissue; test: Lupus nephritis, renal inflammatory factor mRNA; format: in vivo, MRL/lpr mice; conditions: 3 mg/kg, oral, 8 weeks
# Method: Experimental animals: MRI/MpJ and MRL/lpr mice, female, 10 weeks old, purchased from GemPharmatech LLC. Production license number: SCXK(Su)2023-0009. […] They were acclimated for 7 days before use in experiments.
# Oral administration was performed continuously for 8 weeks.
# Allow blood to stand at room temperature for 2 hours, then centrifuge at 3000 rpm for 20 minutes. Aspirate the serum, aliquot it, and store at −70° C. for future use. After blood collection, euthanize mice by cervical dislocation. Open the abdominal cavity, remove kidneys, and dissect out perirenal fat and capsules. […] Store remaining tissues at −70° C. for future use.
# [10] = test system: mouse ear atopic dermatitis; test: MC903-induced atopic dermatitis of the ear, ointment: ear thickness, dermatitis score, lesions; format: in vivo; conditions: 1% ointment, 7 days; max score 12
# Method: (1) Preparation of Oil Phase: Weigh white petrolatum, light liquid paraffin, glyceryl monostearate, ethylparaben, and cetyl alcohol. Heat to 65° C. while stirring until dissolved. Slowly add the dissolved active pharmaceutical ingredient (API) while continuing to stir until uniformly mixed. Set aside.
# (2) Aqueous Phase Preparation: Weigh purified water and Tween 80, heat to 70° C., stir to dissolve, and set aside;
# (3) Emulsification: Slowly add the aqueous phase to the oil phase while maintaining 65° C., homogenize, and continue stirring for 30 min;
# (4) Cooling: Stop heating, continue stirring, gradually reduce to room temperature, cool to form an ointment, and fill containers.
# (§1) Dissolve these substances in a small amount of propylene glycol, then place the resulting solution into the aforementioned pre-cooled blank ointment base. Finally, add water to make the total mass up to 10 g, and grind the mixture thoroughly in a mortar.
# (§2) Except for the Normal group, all other groups underwent AD modeling: 20 μL of MC903 solution (also known as calcipotriol, purchased from Shanghai Yuanye Biotechnology Co., Ltd., used for inducing atopic models) was applied to each mouse's ears once daily for 14 consecutive days to induce the atopic dermatitis model. […] Measure ear thickness changes every 2 days using an electronic caliper before modeling and after treatment initiation.
# Skin Lesion Severity Score: Daily skin lesion severity was assessed in mice using the following criteria, primarily encompassing four symptoms: 1) erythema/hemorrhage; 2) dryness; 3) desquamation/erosion; 4) edema. Each symptom was scored from 0 to 3 based on lesion severity: no symptoms=0 points, mild=1 point, moderate=2 points, severe=3 points. […] Higher scores indicated more severe lesions, with a maximum score of 12. Statistical analysis was performed on the data.
# [11] = test system: inflammatory markers in the ears of AD mice; test: MC903-induced atopic dermatitis of the ear, ointment: mRNA of inflammatory markers; format: in vivo, mouse; conditions: 1% ointment
# Method: as §1, §2
# [12] = test system: IgE and inflammatory markers of AD mice; test: MC903-induced atopic dermatitis, oral administration: serum IgE and ear mRNA of inflammatory markers; format: in vivo, mouse; design: scale not given here; conditions: 5 mg/kg
# Method: as §2
# [13] = test system: inflammatory cytokines (TNF, IL-6, IL-1) in lung tissue; test: LPS-induced sepsis, lung inflammatory factor mRNA (Q-PCR); conditions: 5 mg/kg
# Source text: (§3) They were acclimated for 7 days before experimentation.
# (§4) The normal and model groups received equal volumes of solvent (0.5% CMC-Na) via oral gavage.
# (§5) Specimen Collection: One hour after the final drug administration, mice were euthanized by cervical dislocation. The abdominal cavity was opened, and the lungs, liver, and kidneys were removed. These organs were rinsed twice with pre-chilled PBS. Tissue samples were excised from the mouse lungs, left hepatic lobe, and kidneys. […] Remaining tissues were stored at −70° C. for future use.
# (§6) Accurately weigh 20 mg of kidney, lung, and liver tissue. Rinse with pre-chilled PBS solution, cut into small pieces using ophthalmic scissors, and place into a glass homogenizer. Add 1 mL of Trizol reagent and grind to prepare tissue homogenate. Transfer the homogenate to a RNAse-free 1.5 mL EP tube and lyse on ice for 10 min. Add 200 μL chloroform, vortex vigorously, and let stand on ice for 3-5 min. Centrifuge at 12,000 rpm and 4° C. for 15 min. Carefully transfer the supernatant to a new RNAse-free 1.5 mL EP tube. Add an equal volume of pre-chilled isopropanol, incubate on ice for 30 min, then centrifuge at 12,000 rpm and 4° C. for 10 min. Discard the supernatant. […] Subsequently, dissolve the pellet in 10 μL DEPC-treated water. Dilute 1 μL of the total RNA solution 100-fold and measure the OD values at 260 nm and 280 nm using a full-wavelength microplate reader.
# (§7) Following the method described in the kit manual, subsequent experiments were conducted using a 20 μL reverse transcription reaction system:
# (§8) Primers were designed based on the nucleotide sequence of the mouse in GenBank and synthesized.
# (§9) Perform subsequent experiments using a 20 μL reaction system according to the kit instructions:
# (§10) After adding the above reagents to micro reaction tubes, seal them with the cap and place them in the Q-PCR instrument. Set the parameters according to the following reaction conditions to perform the amplification experiment.
# (§11) Record the threshold cycle (Ct) values for each group and perform calculation and analysis using the 2^−ΔΔCt method (setting the expression level of the reference gene Gapdh as 1 to correct the expression levels of the target genes).
# (§12) Data Statistics: All data are presented as Means±S.E.M. Analysis of variance (ANOVA) was performed to assess the significance of differences. Groups showing significant differences in ANOVA were further compared using one-way ANOVA and Dunnett's test. A P-value <0.05 was considered statistically significant.
# [14] = test system: inflammatory factors (TNF, IL-6, IL-1) in renal tissue; test: LPS-induced sepsis, renal inflammatory factor mRNA (Q-PCR); conditions: 5 mg/kg
# Source text: as §3, §4, §5, §6, §7, §8, §9, §10, §11, §12
# [15] = test system: inflammatory factors (TNF, IL-6, IL-1) in liver tissue; test: LPS-induced sepsis, hepatic inflammatory factor mRNA (Q-PCR); conditions: 5 mg/kg
# Source text: as §3, §4, §5, §6, §7, §8, §9, §10, §11, §12
# [16] = 40 μmol/kg/day, oral, 2 weeks, spleen, flow cytometry
# [17] = 40 μmol/kg/day, oral, 2 weeks, tumor, flow cytometry
# [18] = compared with solvent control, result in words
compound,measurement,setting,value
C=C1C(=O)O[C@H]2[C@H]1CCC(C)=C1CC[C@@](C)(OC(=O)NCCN3CCOCC3)[C@@H]12 [Compound 99],T-cell proliferation rate (%),[1],+ (T-cell proliferation rate within the 0-20% range compared to the control group)
same,Tumor Inhibition Rate,[2],80.05%
same,Tumor weight,[2]; solvent 0.92 ± 1.41,0.18 ± 0.40 g
same,Tumor Suppression Rate (%),"[3]; 40 μmol/kg/day, H22 xenograft",25.18%
same,Tumor weight,"[3]; 40 μmol/kg/day, H22 xenograft",6.40 ± 1.59 g
same,"tumor-inhibiting effect, H22",[3]; result in words,tumor-inhibiting effects
same,Spleen MDSCs (%),[4]; [16],30.90 ± 10.21 %
same,Tumor-associated MDSCs (%),[4]; [17],34.85 ± 7.99 %
same,proportion of MDSCs in tumor tissues and spleens,[4]; [18],significantly reduced
same,Spleen T cells (%),[5]; [16],31.71 ± 2.95 %
same,Tumor T cells (%),[5]; [17],22.81 ± 5.33 %
same,proportion of T cells in tumor tissues and spleens,[5]; [18],significantly increased
same,Tumor inhibition rate (%),"[6]; 40 μmol/kg/day, 4T1",20.94%
same,Tumor weight,"[6]; 40 μmol/kg/day, 4T1",1.43 ± 0.19 g
same,"antitumor effect, 4T1",[6]; result in words,no significant antitumor effects
same,Water-solubility,[7],220.8 mg/mL
"C[C@@H]1C[C@H]2[C@@H]3CCC4=CC(=O)C=C[C@]4(C)[C@@]3(F)[C@@H](O)C[C@]2(C)[C@@]1(O)C(=O)CO [Dex, Dexamethasone, reference compound]",IL-1β,[8],1873.00 ± 86.52 pg/mL
same,"Il1 mRNA expression, kidney",[9],3.47 ± 0.35
same,"Il6 mRNA expression, kidney",[9],1.12 ± 0.24
same,"Tnf mRNA expression, kidney",[9],1.94 ± 0.30
same,"Dermatitis Score, ear",[10],3.50 ± 0.22
same,"I14 mRNA expression, ear",[11],1.35 ± 0.30
same,"I113 mRNA expression, ear",[11],1.91 ± 0.39
same,"I131 mRNA expression, ear",[11],1.86 ± 0.44
same,"Il1 mRNA expression, ear",[11],12.69 ± 4.22
same,"TSLP mRNA expression, ear",[11],1.30 ± 0.17
same,"I14 mRNA expression, ear",[12],2.59 ± 0.38
same,"I113 mRNA expression, ear",[12],1.89 ± 0.20
same,"I131 mRNA expression, ear",[12],2.06 ± 0.20
same,"Il1 mRNA expression, lung",[13]; LPS 19.01,7.20 ± 0.36
same,"Il6 mRNA expression, lung",[13]; LPS 20.34,9.88 ± 0.80
same,"Il1 mRNA expression, kidney",[14]; LPS 7.99,6.05 ± 1.03
same,"Il6 mRNA expression, kidney",[14]; LPS 8.80,5.76 ± 0.72
same,"Il6 mRNA expression, liver",[15]; LPS 11.34,4.27 ± 1.33
same,"Il1 mRNA expression, liver",[15]; LPS 11.52,7.54 ± 0.70
